In patent US12303509B2, “Compounds for the treatment of BRAF-associated diseases and disorders” (Pfizer Inc., priority 2020, dated 2025) one finds IC50 data, which are given here for ten molecules.

Experiment [1] deals with full-length FLAG-tagged B-Raf(V600E) (Homo sapiens (Human), UniProt P15056, V600E). Briefly: BRAF V600E enzyme assay (TR-FRET competitive displacement). Format: binding. The note with it: averaged IC50; TR-FRET tracer displacement, 60 min. As for the experimental part:
A competitive displacement assay was configured for B-Raf that monitors the amount of a fluorescently-tagged “tracer” bound to B-Raf via TR-FRET from an anti-tag Eu-labeled antibody also bound to B-Raf. For full-length FLAG-tagged B-Raf(V600E), the assay mixtures consisted of 25 mM K^+HEPES, pH 7.4, 10 mM MgCl2, 0.01% Triton X-100, 1 mM DTT, 2% DMSO (from compound), 50 nM Tracer 1710 (ThermoFisher, PR9176A), 0.5 nM Eu anti-FLAG (M2)-cryptate Ab (Cisbio, 61FG2KLB) and 5 nM full-length, N-terminally FLAG-tagged B-Raf(V600E) (Origene Technologies, TP700031. Compounds were typically diluted in DMSO across an 11-point dosing range created using a 3-fold serial dilution protocol at a top dose of 10 μM. The assay was run in 384-well, polystyrene, low-volume, non-treated, white microtiter plates (Costar 4512) in a final volume of 12 μL. Low control wells included 1 μM of a potent B-Raf inhibitor as a control. The assays were incubated at ambient temperature (typically 22° C.) for 60 min and then read on a PerkinElmer EnVision microplate reader using standard TRF settings (λEx=320 nm, λEm=615 & 665 nm). The ratioed counts (665 nm/615 nm) were converted to percent of control (POC) using the following equation:
[formula] • where: • Xmax Average Uninhibited Controls • Xmin Average Background
A 4-parameter logistic model was the fit to the POC data for each compound. From that fit, the IC50 was estimated and is defined as the concentration of compound at which the best-fit curve crosses 50 POC.
On the technique in general: TR-FRET usually uses a lanthanide donor and a delayed reading to cut background.

Another experiment has as its system A375 cells. Briefly: Cellular phospho-ERK inhibition assay in A375 cells. The experiment is classed as cell-based. The note with it: Homo sapiens, A-375, A375 cells (head prints A357), 2 hours treatment, read-out: A357 cell IC50. The protocol:
A375 and H1755 cells were obtained from the American Type Culture Collection (ATCC, Rockville, MD). A375 cells were maintained in DMEM growth medium containing 10% FBS. H1755 cells were maintained in RPMI growth medium containing 10% FBS.
Cells were harvested according to standard protocols, counted and plated onto flat-bottom, 96-well tissue culture plates (Costar #3599) at 2.5×10^4 cells/well for A375 cells and 1.5×10^4 cells/well for H1755 cells in 100 μL/well of growth medium containing 10% FBS. After an overnight incubation at 37° C. with 5% CO2 cells were treated for 2 hours at 37° C., 5% CO2 with compounds prepared as a 9-point, 1:3.33 fold dilution series with final compound concentrations ranging from 66 pM-10 μM and a constant DMSO concentration of 0.25%. Control wells contained either 0.25% DMSO alone (uninhibited control) or 10 μM binimetinib (complete inhibition control). The levels of phosphorylated ERK are determined using an In Cell Western protocol: following compound incubation, growth medium was discarded, and cells were fixed with 0.4% formaldehyde in PBS for 20 minutes at room temperature. Cells were permeabilized with 100% methanol for 10 minutes at room temperature. Plates were washed with PBS containing 0.05% Tween-20 and blocked for 1 hour at room temperature with LI-COR Blocking Buffer (LI-COR Biosciences; Cat #927-40000). Plates were then incubated for 2 hours at room temperature with 50 μL of a 1:400 dilution of anti-phospho-ERK1/2 (Thr202/Tyr204) (Cell Signaling; Cat #9101) and a 1:1000 dilution of anti-GAPDH (Millipore; Cat #MAB374) in LI-COR blocking buffer containing 0.05% Tween-20. Plates were washed with PBS containing […] Tween-20 then incubated at room temperature for 1 hour with 50 μL of a 1:1000 dilution of anti-rabbit AlexaFluor 680 (Life Technologies; Cat #A21109) and a 1:1000 dilution of anti-mouse IRDye 800CW (LI-COR; Cat #926-32210) in LI-COR blocking buffer containing 0.05% Tween-20. Plates were analyzed by reading on an Odyssey CLx infrared scanner. For each well, the phospho-ERK signal was normalized to the GAPDH signal and converted to POC using the following equation:
[formula] • Where: • Xmax Average Uninhibited Controls • Xmin Average Complete Inhibition Controls IC50 values were then calculated using a 4-parameter fit in XLfit software and are provided in Table A1.

Counter-ions that a name gives are not always drawn.

As usually defined, the IC50 is the point on the concentration scale where inhibition reaches its midpoint.

Sequence of full-length FLAG-tagged B-Raf(V600E) (P15056 whole entry V600E): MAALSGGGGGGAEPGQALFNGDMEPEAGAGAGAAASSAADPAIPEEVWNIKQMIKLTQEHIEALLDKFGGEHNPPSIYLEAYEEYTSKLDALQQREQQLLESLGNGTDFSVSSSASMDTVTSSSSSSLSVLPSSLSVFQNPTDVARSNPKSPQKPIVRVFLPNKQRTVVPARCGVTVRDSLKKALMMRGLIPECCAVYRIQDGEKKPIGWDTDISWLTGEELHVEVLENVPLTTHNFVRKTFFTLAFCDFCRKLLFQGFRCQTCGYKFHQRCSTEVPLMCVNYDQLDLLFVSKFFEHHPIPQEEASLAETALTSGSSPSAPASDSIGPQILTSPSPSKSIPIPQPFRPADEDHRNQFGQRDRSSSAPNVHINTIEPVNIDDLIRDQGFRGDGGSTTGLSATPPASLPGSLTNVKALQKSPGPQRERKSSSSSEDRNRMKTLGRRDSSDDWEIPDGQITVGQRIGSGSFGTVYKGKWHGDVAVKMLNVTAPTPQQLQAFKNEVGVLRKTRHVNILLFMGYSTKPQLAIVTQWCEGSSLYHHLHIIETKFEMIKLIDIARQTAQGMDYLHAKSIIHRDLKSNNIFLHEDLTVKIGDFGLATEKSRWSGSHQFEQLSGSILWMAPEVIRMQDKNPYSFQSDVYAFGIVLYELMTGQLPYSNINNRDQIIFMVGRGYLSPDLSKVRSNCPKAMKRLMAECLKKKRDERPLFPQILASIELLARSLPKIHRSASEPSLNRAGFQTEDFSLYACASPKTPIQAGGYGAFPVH

Turning to `Cc1c(Nc2c(F)ccc(NS(=O)(=O)N(C)C3CCOC3)c2Cl)ccc2ncn(C)c(=O)c12` (centres unmarked) [Example 72, N-(2-chloro-3-((3,5-dimethyl-4-oxo-3,4-dihydroquinazolin-6-yl)amino)-4-fluorophenyl)-(N-methyl-N-(tetrahydrofuran-3-yl))-sulfamide], the concentration for half-maximal inhibition (IC50) was found to be 0.299 µM in experiment [1] and 0.195 µM with A375 cells.
In the case of `Cc1c(Nc2c(F)ccc(NS(=O)(=O)N(C)C3CC3)c2Cl)ccc2ncn(C)c(=O)c12` [Example 73, N-(2-chloro-3-((3,5-dimethyl-4-oxo-3,4-dihydroquinazolin-6-yl)amino)-4-fluorophenyl)-(N-cyclopropyl-N-methyl)-sulfamide], the half-inhibitory concentration (IC50) in experiment [1] was determined as 0.234 µM; with A375 cells, 0.121 µM.
The corresponding values for `Cc1c(Nc2c(F)ccc(NS(=O)(=O)N(C)C3CCC3)c2Cl)ccc2ncn(C)c(=O)c12` [Example 74, N-(2-chloro-3-((3,5-dimethyl-4-oxo-3,4-dihydroquinazolin-6-yl)amino)-4-fluorophenyl)-(N-cyclobutyl-N-methyl)-sulfamide] are 0.203 µM and 0.16 µM.
For `COC1CCN(S(=O)(=O)Nc2ccc(F)c(Nc3ccc4ncn(C)c(=O)c4c3C)c2Cl)CC1` [Example 75, N-(2-chloro-3-((3,5-dimethyl-4-oxo-3,4-dihydroquinazolin-6-yl)amino)-4-fluorophenyl)-4-methoxypiperidine-1-sulfonamide trifluoroacetate] the same measures were 0.191 µM and 0.114 µM.
For `Cc1c(Nc2c(F)ccc(NS(=O)(=O)N3CCC(C(F)(F)F)C3)c2Cl)ccc2ncn(C)c(=O)c12` (centres unmarked) [Example 76, N-(2-chloro-3-((3,5-dimethyl-4-oxo-3,4-dihydroquinazolin-6-yl)amino)-4-fluorophenyl)-3-(trifluoromethyl)pyrrolidine-1-sulfonamide trifluoroacetate] the same measures were 0.183 µM and 0.622 µM.
For `Cc1c(Nc2c(F)ccc(NS(=O)(=O)N3CCC(O)CC3)c2Cl)ccc2ncn(C)c(=O)c12` [Example 77, N-(2-chloro-3-((3,5-dimethyl-4-oxo-3,4-dihydroquinazolin-6-yl)amino)-4-fluorophenyl)-4-hydroxypiperidine-1-sulfonamide trifluoroacetate], the results for the IC50 (in experiment [1]; in the experiment with A375 cells) were 0.177 µM and 0.127 µM, respectively.
For `Cc1c(Nc2c(F)ccc(NS(=O)(=O)N3CC4CCC3C4)c2Cl)ccc2ncn(C)c(=O)c12` (centres unmarked) [Example 81, N-(2-chloro-3-((3,5-dimethyl-4-oxo-3,4-dihydroquinazolin-6-yl)amino)-4-fluorophenyl)-2-azabicyclo[2.2.1]heptane-2-sulfonamide trifluoroacetate] the same measures were 0.075 µM and 0.133 µM.
On to `Cc1c(Nc2c(F)ccc(NS(=O)(=O)N3CCC4CC43)c2Cl)ccc2ncn(C)c(=O)c12` (centres unmarked) [Example 153, N-(2-chloro-3-((3,5-dimethyl-4-oxo-3,4-dihydroquinazolin-6-yl)amino)-4-fluorophenyl)-2-azabicyclo[3.1.0]hexane-2-sulfonamide trifluoroacetate], for which the IC50 in experiment [1] was 0.071 µM; in the experiment on A375 cells, 0.31 µM.
On to `Cc1c(Nc2c(F)ccc(NS(=O)(=O)N3CC(COC(F)(F)F)C3)c2Cl)ccc2ncn(C)c(=O)c12` [Example 156, N-(2-chloro-3-((3,5-dimethyl-4-oxo-3,4-dihydroquinazolin-6-yl)amino)-4-fluorophenyl)-3-((trifluoromethoxy)methyl)azetidine-1-sulfonamide trifluoroacetate], for which the IC50 in experiment [1] worked out at 0.202 µM; with A375 cells, 0.872 µM.
The corresponding values for `Cc1c(Nc2c(F)ccc(NS(=O)(=O)N3CC(OC(F)(F)F)C3)c2Cl)ccc2ncn(C)c(=O)c12` [Example 162, N-(2-chloro-3-((3,5-dimethyl-4-oxo-3,4-dihydroquinazolin-6-yl)amino)-4-fluorophenyl)-3-(trifluoromethoxy)azetidine-1-sulfonamide] are 0.114 µM and 1.28 µM.
